For series [1], the system named is A2780 cells. The experiment in a line: Test for induction of differentiation in A2780 cells (ALP activity, ALPmin). The class given is cell-based, human. Particulars: A2780 cells, 3 days incubation, minimum concentration of the drug inducing increase of ALP activity. As for the experimental part: Increase of alkaline phosphatase (ALP) activity is known as an indicator for differentiation of human colon cancer cells. […] Thus, differentiation inducing action was evaluated using ALP activity as an indicator.
To each well of a 96-well plate was placed 0.1 mL of A2780 cells (15,000 cells/well) and the next day was added 0.1 mL of a sequential dilute of test solution with the medium. […] The reaction was quenched with 0.05 mL/well of 3N sodium hydroxide aq. For each well, an absorbance at 405 nm was measured to determine the minimum concentration of the drug inducing increase of ALP activity (ALPmin).

Where a name gives a salt, the structure may show the parent alone.

Turning to `Nc1ccccc1NC(=O)c1ccc(CNC(=O)Oc2cccnc2)cc1`, the melting point (commonly the temperature of the solid-liquid transition) is 209 °C (dec.). `Cl.Nc1ccccc1NC(=O)c1ccc(CNC(=O)c2ccccc2)cc1` [Example 1, N-(2-aminophenyl)-4-(N-benzoylaminomethyl)benzamide hydrochloride] displayed a melting point of 206 to 209 °C. In addition, in series [1] (Homo sapiens, 72 h), the minimal effective concentration – broadly, the smallest amount tested that counted as effective – is 1 µM. On to `Nc1ccccc1NC(=O)c1ccc(CNC(=O)c2ccccc2Cl)cc1` [Example 2, N-(2-aminophenyl)-4-[N-(2-chlorobenzoyl)aminomethyl]benzamide], for which the melting point was 201 to 204 °C (dec.). For the same compound, in series [1] (Homo sapiens, 72 h), the minimal effective concentration amounted to 3 µM. For `Cl.Nc1ccccc1NC(=O)c1ccc(CNC(=O)c2ccccc2[N+](=O)[O-])cc1` [Example 3, N-(2-aminophenyl)-4-[N-(2-nitrobenzoyl)aminomethyl]benzamide hydrochloride], in that order: 210 to 212 °C (dec.) and 3 µM. Take `COc1cccc(C(=O)NCc2ccc(C(=O)Nc3ccccc3N)cc2)c1` [Example 5, N-(2-aminophenyl)-4-[N-(3-methoxybenzoyl)aminomethyl]benzamide]: the melting point is 182 to 185 °C. Further, in series [1] (Homo sapiens, 72 h), the minimal effective concentration turned out to be 1 µM.

For `COc1ccc(C(=O)NCc2ccc(C(=O)Nc3ccccc3N)cc2)cc1` [Example 6, N-(2-aminophenyl)-4-[N-(4-methoxybenzoyl)aminomethyl]benzamide], the melting point is 149 to 151 °C. In series [1] (Homo sapiens, 72 h), this compound gave a minimal effective concentration of 1 µM. Taken in the same sequence, the figures for `COc1cc(C(=O)NCc2ccc(C(=O)Nc3ccccc3N)cc2)cc(OC)c1OC` [Example 7, N-(2-aminophenyl)-4-[N-(3,4,5-trimethoxybenzoyl)aminomethyl]benzamide] were 208 to 210 °C (dec.) and 1 µM. For `CN(C)c1ccc(C(=O)NCc2ccc(C(=O)Nc3ccccc3N)cc2)cc1` [Example 8, N-(2-aminophenyl)-4-[N-[4-(N,N-dimethyl)aminobenzoyl]aminomethyl]benzamide], in that order: 216 to 219 °C (dec.) and 1 µM.

Consider `Nc1ccccc1NC(=O)c1ccc(CNC(=O)c2ccc(C(F)(F)F)cc2)cc1` [Example 9, N-(2-aminophenyl)-4-[N-(4-trifluoromethylbenzoyl)aminomethyl]benzamide], for which the melting point is 243 to 246 °C. In series [1] (Homo sapiens, 72 h), this compound returned a minimal effective concentration of 1 µM.

Take `Nc1ccccc1NC(=O)c1ccc(CNC(=O)c2ccccn2)cc1` [Example 12, N-(2-aminophenyl)-4-(N-picolinoylaminomethyl)benzamide]: the melting point was 173 to 178 °C (dec.). As for `Cc1cccc(C(=O)NCc2ccc(C(=O)Nc3ccccc3N)cc2)n1` [Example 13, N-(2-aminophenyl)-4-[N-(6-methylpicolinoyl)aminomethyl]benzamide], the melting point fell in the range of 172 to 173 °C. The same compound registered a minimal effective concentration in series [1] (Homo sapiens, 72 h) of 1 µM.

`Nc1ccccc1NC(=O)c1ccc(CNC(=O)c2cccnc2)cc1` [Example 14, N-(2-aminophenyl)-4-(N-nicotinoylaminomethyl)benzamide] yielded a melting point of 193 to 196 °C.

With `Cc1ncccc1C(=O)NCc1ccc(C(=O)Nc2ccccc2N)cc1` [Example 15, N-(2-aminophenyl)-4-[N-(2-methylnicotinoyl)aminomethyl]benzamide], the melting point was 191 to 194 °C (dec.). In series [1] (Homo sapiens, 72 h), this compound returned a minimal effective concentration of 3 µM. Consider `Cc1ccc(C(=O)NCc2ccc(C(=O)Nc3ccccc3N)cc2)cn1` [Example 16, N-(2-aminophenyl)-4-[N-(6-methylnicotinoyl)aminomethyl]benzamide], for which the melting point is 186 to 190 °C (dec.). In addition, the minimal effective concentration in series [1] (Homo sapiens, 72 h) came to 3 µM. Taken in the same sequence, the figures for `Nc1ccccc1NC(=O)c1ccc(CNC(=O)c2cccnc2Cl)cc1` [Example 17, N-(2-aminophenyl)-4-[N-(2-chloronicotinoyl)aminomethyl]benzamide] were 176 to 178 °C (dec.) and 3 µM. For `Nc1ccccc1NC(=O)c1ccc(CNC(=O)c2ccc(Cl)nc2)cc1` [Example 18, N-(2-aminophenyl)-4-[N-(6-chloronicotinoyl)aminomethyl]benzamide], in that order: 205 to 208 °C (dec.) and 3 µM. As for `Nc1ccccc1NC(=O)c1ccc(CNC(=O)c2ccncc2)cc1` [Example 19, N-(2-aminophenyl)-4-(N-isonicotinoylaminomethyl)benzamide], the melting point is 234 to 237 °C (dec.). On to `Nc1ccccc1NC(=O)c1ccc(CNC(=O)c2cnccn2)cc1` [Example 20, N-(2-aminophenyl)-4-[N-(pyrazin-2-yl)carbonylaminomethyl]benzamide], for which the melting point was 207 °C (dec.).

For the compound `Nc1ccccc1NC(=O)c1ccc(CNC(=O)c2cccs2)cc1` [Example 21, N-(2-aminophenyl)-4-[N-(thiophen-2-yl)carbonylaminomethyl]benzamide], the melting point is 202 to 205 °C (dec.). The same measure, in the same setting: to `Nc1ccccc1NC(=O)c1ccc(CNC(=O)c2ccco2)cc1` [Example 22, N-(2-aminophenyl)-4-[N-(furan-2-yl)carbonylaminomethyl]benzamide] belongs 197 °C (dec.). In the case of `Nc1ccccc1NC(=O)c1ccc(CNC(=O)c2ccc[nH]2)cc1` [Example 23, N-(2-aminophenyl)-4-[N-(pyrrol-2-yl)carbonylaminomethyl]benzamide], the melting point was 216 to 220 °C (dec.). Further, the minimal effective concentration in series [1] (Homo sapiens, 72 h) was determined as 1 µM. As to `CC(Oc1cccnc1)C(=O)NCc1ccc(C(=O)Nc2ccccc2N)cc1` (centres unmarked) [Example 47, N-(2-aminophenyl)-4-[N-[2-(pyridin-3-yl)oxy]propionylaminomethyl]benzamide], the melting point is 171 to 173 °C (dec.). In the case of `Nc1ccccc1NC(=O)c1ccc(CNC(=O)OCC2=CN(c3ccccc3)CO2)cc1` [Example 62, N-(2-aminophenyl)-4-[N-(3-phenyloxazol-5-yl)methoxycarbonylaminomethyl]benzamide], the melting point lay within 192 to 195 °C. `Cc1ccc(O)c(NC(=O)c2ccc(CNC(=O)OCc3cccnc3)cc2)c1` [Example 84, N-(2-hydroxy-5-methylphenyl)-4-[N-(pyridin-3-yl)methoxycarbonylaminomethyl]benzamide] registered a melting point of 155 to 155.5 °C.

`Nc1ccccc1NC(=O)Cc1cc2cc(NC(=O)OCc3cccnc3)ccc2o1` [Example 87, N-(2-aminophenyl)-5-[(pyridin-3-yl)methoxycarbonyl]aminobenzofuran-2-carboxyamide] came in with a melting point of 173 to 174 °C.

Compound `Nc1ccccc1NC(=O)c1ccc(NC(=O)Cc2ccccn2)cc1` [Example 110, N-(2-aminophenyl)-4-[(pyridin-2-yl)acetylamino]benzamide dihydrochloride] showed a minimal effective concentration in series [1] (Homo sapiens, 72 h) of 3 µM. Still for that read-out and setting: to `Nc1ccccc1NC(=O)c1ccc(NC(=O)CCc2cccnc2)cc1Cl` [Example 113, N-(2-aminophenyl)-2-chloro-4-[3-(pyridin-3-yl)propanoylamino]benzamide] belongs 0.3 µM. Regarding `Nc1ccccc1NC(=O)c1ccc(NC(=O)CCCc2cccnc2)cc1` [Example 118, N-(2-aminophenyl)-4-[[4-(pyridin-3-yl)butanoyl]amino]benzamide], the melting point was 165 to 167 °C (dec.). Compound `Nc1ccccc1NC(=O)c1cc2cc(NC(=O)CCc3cccnc3)ccc2o1` [Example 128, N-(2-aminophenyl)-5-[3-(pyridin-3-yl)propionamide]benzofuran-2-carboxyamide] registered a minimal effective concentration in series [1] of 0.1 µM. This counts as sub-micromolar. The compound `Nc1ccc(OCC(=O)Nc2ccc(C(=O)Nc3ccccc3N)cc2)cc1` [Example 135, N-(2-aminophenyl)-4-[(4-aminophenoxyacetyl)amino]benzamide] registered a minimal effective concentration in series [1] (Homo sapiens, 72 h) of 3 µM. In series [1] (Homo sapiens, 72 h), `Nc1ccccc1NC(=O)c1ccc(-n2cc(COc3ccccc3)oc2=O)cc1` [Example 136, N-(2-aminophenyl)-4-(5-phenoxymethyl-1,3-oxazolin-2-on-3-yl)benzamide] had a minimal effective concentration of 1 µM.

`Nc1ccccc1NC(=O)c1ccc(N2CC(COc3ccc([N+](=O)[O-])cc3)OC2=O)cc1` (centres unmarked) [Example 137, N-(2-aminophenyl)-4-[5-(4-nitrophenoxy)methyl-1,3-oxazolin-2-on-3-yl-yl]benzamide] yielded a minimal effective concentration in series [1] of 1 µM. This lies in the single-digit micromolar range. Compound `Nc1ccccc1NC(=O)c1ccc(-n2cc(COc3cccnc3)oc2=O)cc1` [Example 139, N-(2-aminophenyl)-4-[5-(pyridin-3-yl)oxymethyl-1,3 oxazolin-2-on-3-yl]benzamide] gave a minimal effective concentration in series [1] (Homo sapiens, 72 h) of 0.3 µM.

With `Nc1ccccc1NC(=O)c1ccc(-n2cc(COc3ccccn3)oc2=O)cc1` [Example 143, N-(2-aminophenyl)-4-[5-(pyridin-2-yl)oxymethyl-1,3-oxazolin-2-on-3-yl]benzamide], in series [1] (Homo sapiens, 72 h), the minimal effective concentration came to 3 µM. On to `Nc1ccccc1NC(=O)c1ccc(CNc2c(NCc3cccnc3)c(=O)c2=O)cc1` [Example 144, N-(2-aminophenyl)-4-[N-[3-[(pyridin-3-yl)methylamino]cyclobuten-1,2-dion-4-yl]aminomethyl]benzamide], for which the melting point came out at 230 °C.

In turn, `Nc1ccccc1NC(=O)c1ccc(CN2CCN(Cc3cccnc3)C2=O)cc1` [Example 145, N-(2-aminophenyl)-4-[3-(pyridin-3-yl)methylimidazolin-2-on-1-yl]methylbenzamide] gave a minimal effective concentration in series [1] of 3 µM. In other words, the single-digit micromolar range.

The values are drawn from patent US7317028B2, “Cell differentiation inducer” (Schering Aktiengesellschaft, priority 1996, dated 2008).
